How the values were obtained:
DSS-induced colitis = test: DSS-induced colitis, bioactivation of salicin by Bacteroides uniformis; type: in vivo; conditions: salicin bioactivated to saligenin by Bacteroides uniformis; FIGS. 7A-7B
Excerpt: (§1) The present disclosure identifies and characterizes a novel mechanism by which the gut microbiome transforms abundant and chemically diverse small molecule components of human diet to drive pro-homeostatic programs in the intestine.

[1] = system: macrophages stimulated with pro-inflammatory LP5; test: Inflammatory cytokine production by stimulated macrophages after saligenin pre-treatment; type: cell-based; conditions: in vitro, FIGS. 1A-1B
AhR [2] = target: T1, AhR (Homo sapiens, UniProt P35869); test: Activation of xenobiotic sensor AhR; type: cell-based; conditions: FIG. 4
T1 sequence (P35869 11-848): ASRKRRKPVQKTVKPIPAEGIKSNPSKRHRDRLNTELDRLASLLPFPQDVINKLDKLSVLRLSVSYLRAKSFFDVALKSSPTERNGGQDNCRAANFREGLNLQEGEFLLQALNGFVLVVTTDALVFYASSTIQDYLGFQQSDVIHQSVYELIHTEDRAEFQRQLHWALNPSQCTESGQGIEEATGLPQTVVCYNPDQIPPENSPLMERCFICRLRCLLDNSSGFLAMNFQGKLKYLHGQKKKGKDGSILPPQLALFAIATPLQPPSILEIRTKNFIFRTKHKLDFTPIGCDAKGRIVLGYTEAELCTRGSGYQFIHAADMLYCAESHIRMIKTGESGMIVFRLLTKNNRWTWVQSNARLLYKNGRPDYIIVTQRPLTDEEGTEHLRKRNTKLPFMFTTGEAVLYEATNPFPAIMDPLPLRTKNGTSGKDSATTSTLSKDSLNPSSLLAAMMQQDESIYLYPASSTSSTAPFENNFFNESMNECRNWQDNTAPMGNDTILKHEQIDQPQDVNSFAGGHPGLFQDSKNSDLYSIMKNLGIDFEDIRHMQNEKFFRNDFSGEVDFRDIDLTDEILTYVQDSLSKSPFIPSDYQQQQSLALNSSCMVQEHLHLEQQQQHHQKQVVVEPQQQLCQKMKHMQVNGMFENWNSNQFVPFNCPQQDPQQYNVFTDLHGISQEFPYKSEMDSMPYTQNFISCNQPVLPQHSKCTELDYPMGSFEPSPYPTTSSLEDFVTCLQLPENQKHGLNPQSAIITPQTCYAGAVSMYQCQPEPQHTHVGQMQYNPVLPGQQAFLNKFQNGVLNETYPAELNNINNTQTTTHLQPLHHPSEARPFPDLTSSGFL
Excerpt: Saligenin […] AhR, a xenobiotic immune sensor that drives pro-homeostatic processes in gut epithelia and immune cells.

[3] = system: DSS-induced intestinal inflammation; test: DSS-induced colitis, pure compound delivered orally; type: in vivo, mice
Excerpt: as §1

AhR [4] = target: T2, AhR (Mus musculus, UniProt P30561); test: In vivo AhR activation in colitis, reversal with competitive AhR antagonist; conditions: FIG. 9
T2 construct: endogenous in cells
T2 sequence (P30561 10-848): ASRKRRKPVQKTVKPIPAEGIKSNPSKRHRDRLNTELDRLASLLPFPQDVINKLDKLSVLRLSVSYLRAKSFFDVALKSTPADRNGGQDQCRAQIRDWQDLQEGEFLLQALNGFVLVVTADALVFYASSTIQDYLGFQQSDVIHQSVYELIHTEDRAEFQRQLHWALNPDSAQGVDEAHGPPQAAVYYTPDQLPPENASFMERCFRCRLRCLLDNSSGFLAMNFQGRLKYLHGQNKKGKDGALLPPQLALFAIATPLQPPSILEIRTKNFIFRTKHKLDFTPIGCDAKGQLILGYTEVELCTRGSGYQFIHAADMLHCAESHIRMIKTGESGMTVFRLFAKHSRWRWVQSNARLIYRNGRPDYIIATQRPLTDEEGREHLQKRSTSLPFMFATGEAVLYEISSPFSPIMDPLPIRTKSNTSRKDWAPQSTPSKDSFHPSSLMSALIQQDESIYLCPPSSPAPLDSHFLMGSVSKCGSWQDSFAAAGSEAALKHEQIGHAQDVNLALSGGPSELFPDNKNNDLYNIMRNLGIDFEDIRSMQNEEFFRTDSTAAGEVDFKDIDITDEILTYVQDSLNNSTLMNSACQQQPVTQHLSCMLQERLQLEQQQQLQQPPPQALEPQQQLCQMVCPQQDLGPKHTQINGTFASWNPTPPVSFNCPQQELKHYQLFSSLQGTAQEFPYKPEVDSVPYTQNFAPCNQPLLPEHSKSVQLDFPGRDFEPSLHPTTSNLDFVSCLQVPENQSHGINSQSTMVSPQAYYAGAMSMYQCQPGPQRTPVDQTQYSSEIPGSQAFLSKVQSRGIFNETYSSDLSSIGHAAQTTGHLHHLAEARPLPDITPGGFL
Excerpt: as §1

| SMILES | protection against DSS-induced colitis (DSS-induced colitis) | inflammatory cytokine production [1] | AhR activation (AhR [2]) | Th1-effector cells ([3]; DSS exposure, FIGS. 6A-6B) | colonic IFN-gamma ([3]; DSS exposure, FIGS. 11A-11B) | protection against DSS-induced intestinal inflammation ([3]; pure compound delivered orally daily for 7 days, mice, FIGS. 8A-8B) | AhR activation in vivo, reversibility by antagonist (AhR [4]) |
| --- | --- | --- | --- | --- | --- | --- | --- |
| OCc1ccccc1O[C@@H]1O[C@H](CO)[C@@H](O)[C@H](O)[C@H]1O [salicin] | protected against DSS-induced colitis | – | – | – | – | – | – |
| OCc1ccccc1O [saligenin] | – | attenuated inflammatory cytokine production | activated | decrease in Th1-effector cells | decrease in colonic IFN-gamma | protected against DSS-induced intestinal inflammation | can be reversed with a competitive AhR antagonist |

Reference: patent US20260027163A1, “GUT MICROBIOME BACTERIA AND ENZYMES THAT METABOLIZE DIETARY AND MEDICINAL PLANT SMALL MOLECULES TO AFFECT GUT MICROBIOME” (The Children's Medical Center Corporation, priority 2022, published 2026)
